Tested on: normal human lung fibroblasts
Assay: Ribosomal profiling: translational efficiency in TGFβ-treated fibroblasts
Format: cell-based
Details: TGFβ-treated fibroblasts
Experimental: Ribosomal profiling allows for measurement of changes in transcription and translation on a genome-wide basis accompanying TGFβ-dependent transformation of fibroblasts to myofibroblasts. Ribosomal profiles of the TGFβ-treated fibroblasts from Example 1 (about 6×10^6 cells/10 cm plate) were prepared and analyzed for changes in translational efficiencies with respect to potential disease-associated cellular changes accompanying this TGFβ-induced transformation.
Briefly, cells were washed with cold PBS supplemented with cycloheximide and lysed with 1× mammalian cell lysis buffer for 10 minutes on ice. Lysates were clarified by centrifugation for 10 minutes at 14,000 rpm and supernatants were collected. Cell lysates were processed to generate ribosomal protected fragments and total mRNA according to the instructions included with the ARTseq Ribosome Profiling Kit (Illumina, San Diego, Calif.). Sequencing of total RNA (RNA) and of ribosome-protected fragments of RNA (RPF) was carried out using RNA-Seq methodology according to the manufacturer's instructions (Illumina). To analyze the ribosomal profiles, RNA-Seq reads were processed with tools from the FASTX-Toolkit (fastq_quality_trimmer, fastx_clipper and fastx_trimmer). Unprocessed and processed reads were evaluated for a variety of quality measures using FastQC, and processed reads were mapped to the human genome using TopHat (see, e.g., Trapnell et al., Bioinformatics 25:1105, 2009). Gene-by-gene assessment of the number of fragments strictly and uniquely mapping to the coding region of each gene was conducted using HTSeq-count, a component of the HTSeq package. […] Genes with low counts in either RPF or RNA were excluded from differential analyses. Pathway and network analyses of differential data were conducted using Ingenuity Pathway Analysis (IPA).

COC(=O)[C@H]1[C@@H](O)[C@@]2(O)c3c(OC)cc(O[C@@H]4O[C@@H]([C@H](O)CO)CO[C@H]4OC)cc3O[C@@]2(c2ccc(OC)cc2)[C@@H]1c1ccccc1 [Silvestrol]
effect in renormalizing the translational profile of the gene (gene RPS6KA5 (ENSG00000100784)): + (+ = 0.9 to 1.5) | effect in renormalizing the translational profile of the gene (gene RPS7 (ENSG00000171863)): − (− = <0.9) | effect in renormalizing the translational profile of the gene (gene RPS8 (ENSG00000142937)): − (− = <0.9) | effect in renormalizing the translational profile of the gene (gene RPS9 (ENSG00000170889)): − (− = <0.9) | effect in renormalizing the translational profile of the gene (gene RPS10 (ENSG00000124614)): − (− = <0.9) | effect in renormalizing the translational profile of the gene (gene RPS11 (ENSG00000142534)): − (− = <0.9) | effect in renormalizing the translational profile of the gene (gene RPS12 (ENSG00000112306)): − (− = <0.9) | effect in renormalizing the translational profile of the gene (gene RPS13 (ENSG00000110700)): − (− = <0.9) | effect in renormalizing the translational profile of the gene (gene RPS14 (ENSG00000164587)): − (− = <0.9) | effect in renormalizing the translational profile of the gene (gene RPS15 (ENSG00000115268)): − (− = <0.9) | effect in renormalizing the translational profile of the gene (gene RPS15A (ENSG00000134419)): − (− = <0.9) | effect in renormalizing the translational profile of the gene (gene RPS16 (ENSG00000105193)): − (− = <0.9) | effect in renormalizing the translational profile of the gene (gene RPS18 (ENSG00000231500)): − (− = <0.9) | effect in renormalizing the translational profile of the gene (gene RPS19 (ENSG00000105372)): − (− = <0.9) | effect in renormalizing the translational profile of the gene (gene RPS20 (ENSG00000008988)): − (− = <0.9) | effect in renormalizing the translational profile of the gene (gene RPS21 (ENSG00000171858)): − (− = <0.9) | effect in renormalizing the translational profile of the gene (gene RPS23 (ENSG00000186468)): − (− = <0.9) | effect in renormalizing the translational profile of the gene (gene RPS24 (ENSG00000138326)): − (− = <0.9) | effect in renormalizing the translational profile of the gene (gene RPS25 (ENSG00000118181)): − (− = <0.9) | effect in renormalizing the translational profile of the gene (gene RPS26 (ENSG00000197728)): − (− = <0.9) | effect in renormalizing the translational profile of the gene (gene RPS27 (ENSG00000177954)): − (− = <0.9) | effect in renormalizing the translational profile of the gene (gene RPS27A (ENSG00000143947)): − (− = <0.9) | effect in renormalizing the translational profile of the gene (gene RPS28 (ENSG00000233927)): − (− = <0.9) | effect in renormalizing the translational profile of the gene (gene RPS29 (ENSG00000213741)): − (− = <0.9) | effect in renormalizing the translational profile of the gene (gene RPSA (ENSG00000168028)): − (− = <0.9) | effect in renormalizing the translational profile of the gene (gene RTN2 (ENSG00000125744)): − (− = <0.9) | effect in renormalizing the translational profile of the gene (gene SEMA3A (ENSG00000075213)): − (− = <0.9) | effect in renormalizing the translational profile of the gene (gene SGIP1 (ENSG00000118473)): + (+ = 0.9 to 1.5) | effect in renormalizing the translational profile of the gene (gene SHC3 (ENSG00000148082)): − (− = <0.9) | effect in renormalizing the translational profile of the gene (gene SLC2A12 (ENSG00000146411)): ++ (++ = 1.5 to 2.0) | effect in renormalizing the translational profile of the gene (gene SLC7A7 (ENSG00000155465)): − (− = <0.9) | effect in renormalizing the translational profile of the gene (gene SLC15A3 (ENSG00000110446)): − (− = <0.9) | effect in renormalizing the translational profile of the gene (gene SLC25A6 (ENSG00000169100)): − (− = <0.9) | effect in renormalizing the translational profile of the gene (gene SLC40A1 (ENSG00000138449)): − (− = <0.9) | effect in renormalizing the translational profile of the gene (gene SMO (ENSG00000128602)): − (− = <0.9) | effect in renormalizing the translational profile of the gene (gene SNRPA (ENSG00000077312)): + (+ = 0.9 to 1.5) | effect in renormalizing the translational profile of the gene (gene SOX5 (ENSG00000134532)): − (− = <0.9) | effect in renormalizing the translational profile of the gene (gene SOX6 (ENSG00000110693)): − (− = <0.9) | effect in renormalizing the translational profile of the gene (gene SPATA6 (ENSG00000132122)): − (− = <0.9) | effect in renormalizing the translational profile of the gene (gene STAMBPL1 (ENSG00000138134)): + (+ = 0.9 to 1.5) | effect in renormalizing the translational profile of the gene (gene STS (ENSG00000101846)): − (− = <0.9) | effect in renormalizing the translational profile of the gene (gene SYNE2 (ENSG00000054654)): − (− = <0.9) | effect in renormalizing the translational profile of the gene (gene TAF1D (ENSG00000166012)): − (− = <0.9) | effect in renormalizing the translational profile of the gene (gene TDG (ENSG00000139372)): − (− = <0.9) | effect in renormalizing the translational profile of the gene (gene TEN1 (ENSG00000257949)): + (+ = 0.9 to 1.5) | effect in renormalizing the translational profile of the gene (gene TET2 (ENSG00000168769)): − (− = <0.9) | effect in renormalizing the translational profile of the gene (gene TET3 (ENSG00000187605)): − (− = <0.9) | effect in renormalizing the translational profile of the gene (gene TGFBI (ENSG00000120708)): − (− = <0.9) | effect in renormalizing the translational profile of the gene (gene THBS3 (ENSG00000169231)): + (+ = 0.9 to 1.5) | effect in renormalizing the translational profile of the gene (gene THG1L (ENSG00000113272)): − (− = <0.9) | effect in renormalizing the translational profile of the gene (gene TIMM9 (ENSG00000100575)): − (− = <0.9) | effect in renormalizing the translational profile of the gene (gene TKT (ENSG00000163931)): − (− = <0.9) | effect in renormalizing the translational profile of the gene (gene TMTC1 (ENSG00000133687)): +++ (+++ = >2.0) | effect in renormalizing the translational profile of the gene (gene TOMM7 (ENSG00000196683)): − (− = <0.9) | effect in renormalizing the translational profile of the gene (gene TOP2A (ENSG00000131747)): +++ (+++ = >2.0) | effect in renormalizing the translational profile of the gene (gene TPGS1 (ENSG00000141933)): − (− = <0.9) | effect in renormalizing the translational profile of the gene (gene TPM2 (ENSG00000198467)): − (− = <0.9) | effect in renormalizing the translational profile of the gene (gene TPT1 (ENSG00000133112)): − (− = <0.9) | effect in renormalizing the translational profile of the gene (gene TRERF1 (ENSG00000124496)): + (+ = 0.9 to 1.5) | effect in renormalizing the translational profile of the gene (gene UBA52 (ENSG00000221983)): − (− = <0.9) | effect in renormalizing the translational profile of the gene (gene UQCRB (ENSG00000156467)): − (− = <0.9) | effect in renormalizing the translational profile of the gene (gene UTRN (ENSG00000152818)): − (− = <0.9) | effect in renormalizing the translational profile of the gene (gene VIM (ENSG00000026025)): − (− = <0.9) | effect in renormalizing the translational profile of the gene (gene ZNF581 (ENSG00000171425)): − (− = <0.9) | effect in renormalizing the translational profile of the gene (gene ZNF608 (ENSG00000168916)): − (− = <0.9)

— US9993494B2, “Compositions and methods for treating fibrotic disease” (eFFECTOR Therapeutics, Inc., priority 2014, dated 2018)
